# Experimental data from US20240335508A1, “HYBRID GOLD NANOPARTICLE-LIPID NANOPARTICLES AND METHODS OF USE AND PRODUCTION THEREOF” (THE BOARD OF REGENTS OF THE UNIVERSITY OF OKLAHOMA, priority 2023, published 2024).
# System: TOV-112D cells
# Assay: DOX AuNSV cytotoxicity, MTS assay
# Assay type: cell-based
# Conditions: 0.5 and 0.25 μg/mL DOX
# Method: TOV-112D cells were cultured in RPMI 1640 media containing 10% FBS and 1% penicillin-streptomycin at 37° C. with 5% CO2. Cells were seeded on 96-well plates in 100 μL of media at 7,500 cells per well. The next day, cells were treated in triplicate with NSVs, AuNSVs, DOX, DOX NSVs, and DOX AuNSVs at concentrations of 0.5, 0.25, 0.1, and 0.05 μg/mL DOX equivalence. After 24, 48, and 72 hours of treatment, 10 μL of CellTiter 96® AQueous One Solution Cell Proliferation Assay (MTS) (Promega, Madison, WI) was added to each well and incubated for 3-4 hours. After incubation, the well absorbance was measured at 490 nm with a SPECTROstar plate reader with cell viability calculated from the ratio of absorbance between untreated controls and each treatment group.
compound,measurement,value
"COc1cccc2c1C(=O)c1c(O)c3c(c(O)c1C2=O)C[C@@](O)(C(=O)CO)C[C@@H]3O[C@H]1C[C@H](N)[C@H](O)[C@H](C)O1 [DOX, Doxorubicin]",Cell viability,decreased cell viability faster than either the DOX NSV or DOX AuNSV
